In patent publication US20090042790A1, “TRANSMUCOSAL DELIVERY OF PEPTIDE DERIVATIVES” (NASTECH PHARMACEUTICAL COMPANY INC., priority 2005, published 2009):
*1 amine or outer side, *2 acyl side, *3 side chain or, on linkers, in order; H or OH if unused. Where a SMILES comes first, the peptide text is derived from it. Bridges are numbered along the chain shown (N, C = ends). [ ]: non-standard residue; d: D form. The star is where a group is joined. X1 = COc1ccc(C2CCC(N[*:1])(C(=O)[*:2])CC2)cc1; Pentanoyl = CCCCC(=O)*

Tests used:
[1] = tested on: male DOI mice (obesity mouse model system); experiment: Cumulative food intake in male DOI mice; type: in vivo; details: high dose group (doses 1.25, 2.5, 5 mg/kg); 16 and 24 hours after dose administration; vs 30% PEG control; FIG. 3
Procedure: The effect of the low molecular weight PEGylated MC4-RA and unmodified MC4-RA on food intake was evaluated under regular light cycle in male DOI mice (obesity mouse model system). Control mice were administered a 30% PEG formulation. For the unmodified MC4-RA in vivo study, individual subjects categorized into three separate study groups, based on dosage levels, were administered 1.25 mg/kg, 2.5 mg/kg or 5 mg/kg of unmodified MC4-RA. For the 2 kDa PEGylated MC4-RA in vivo study, individual subjects categorized into three separate study groups, again based on dosage levels, were administered 5 mg/kg, 10 mg/kg and 20 mg/kg 2 kDa PEGylated MC4-RA. The effective does is higher for the PEGylated MC4-RA due to the tripled molecular weight resulting from the conjugation of a 2 kDa PEG to the MC4-RA molecule.

[2] = biological target: T1, melanocortin-1 (MC1 receptor) (Homo sapiens, UniProt Q01726); experiment: cAMP assay in HEK293 cells expressing the MC1 receptor; type: cell-based; details: 1×10^−11 to 1×10^−5 M, FIG. 2, read-out: effective concentration to reach a 50% response level (EC50), cAMP production
T1 construct: expressed in transfected cells; host or cells: HEK293
T1 sequence (Q01726 whole entry): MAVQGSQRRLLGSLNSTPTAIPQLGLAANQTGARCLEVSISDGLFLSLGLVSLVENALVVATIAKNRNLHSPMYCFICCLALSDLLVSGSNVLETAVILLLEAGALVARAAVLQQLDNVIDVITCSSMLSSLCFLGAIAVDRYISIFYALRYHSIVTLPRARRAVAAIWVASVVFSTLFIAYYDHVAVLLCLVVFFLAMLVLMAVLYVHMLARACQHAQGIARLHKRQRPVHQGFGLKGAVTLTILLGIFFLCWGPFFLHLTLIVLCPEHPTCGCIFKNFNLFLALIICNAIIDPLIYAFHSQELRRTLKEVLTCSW
Procedure: FIG. 2: The degree of MC4 receptor specificity of the 2 kDa PEGylated MC4-RA and the unmodified MC4-RA was compared. The ability to stimulate cAMP production in cells in vitro was assayed; HEK293 cells expressed the melanocortin-1 (MC1 receptor). A measured increase in cAMP levels indicated a lack of MC4 receptor specificity. The 2 kDa PEGylated and unmodified MC4-RA were incubated in a concentration range of approximately 1×10^−11 to 1×10^−5 M with HEK293 cells that were expressing the MC1 receptor. The maximum quantity of cAMP was normalized to 100% or “% Max Response” and the concentration of 2 kDA PEGylated or unmodified MC4-RA was shown as the log of the Molar concentration. The effective concentration to achieve a 50% response (EC50) is shown.
The degree of MC4 receptor specificity of the 2 kDa PEGylated MC4-RA and the unmodified MC4-RA was compared. […] In this instance, a measured increase in cAMP levels would indicate a lack of MC4 receptor specificity. […] The experiment was performed in triplicate and cAMP levels were measured with the cAMP Tropix assay kit. The maximum quantity of cAMP was normalized to 100% or “% Max Response” and the concentration of 2 kDa PEGylated or unmodified MC4-RA is shown as the log of the Molar concentration.

[3] = biological target: T2, melanocortin-4 cell receptor (MC4 receptor) (Homo sapiens, UniProt P32245); experiment: cAMP assay in HEK293 cells expressing the MC4 receptor; type: cell-based; details: 1×10^−11 to 1×10^−5 M, FIG. 1, read-out: effective concentration to reach a 50% response level (EC50), cAMP production
T2 construct: expressed in transfected cells; host or cells: HEK293
T2 sequence (P32245 whole entry): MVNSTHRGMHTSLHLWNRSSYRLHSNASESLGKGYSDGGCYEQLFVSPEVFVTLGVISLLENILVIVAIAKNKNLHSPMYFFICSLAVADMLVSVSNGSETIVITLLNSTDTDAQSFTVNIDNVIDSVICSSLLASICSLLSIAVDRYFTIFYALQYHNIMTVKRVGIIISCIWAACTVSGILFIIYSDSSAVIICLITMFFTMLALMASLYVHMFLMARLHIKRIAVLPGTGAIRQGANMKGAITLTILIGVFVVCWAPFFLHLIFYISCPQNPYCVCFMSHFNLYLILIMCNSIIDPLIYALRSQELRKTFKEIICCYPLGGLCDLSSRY
Procedure: FIG. 1: The ability of the 2 kDa PEGylated MC4-RA and unmodified MC-4RA to stimulate cAMP production in cells expressing the melanocortin-4 cell receptor (MC4 receptor) was compared. HEK293 cells expressing the MC4 receptor were incubated with either the 2 kDa PEGylated MC4-RA or the unmodified MC4-RA. The concentrations used for either MC4-RA in the cAMP assay ranged from approximately 1×10^−11 to 1×10^−5 M. The maximum quantity of cAMP was normalized to 100% or “% Max Response” and the concentration of 2 kDA PEGylated or unmodified MC4-RA was shown as the log of the Molar concentration. The effective concentration to achieve a 50% response (EC50) is shown.
An ideal property of any therapeutic agent is target specificity as induction, for example, of unwanted cell surface receptors and/or cell signaling pathways may lead to deleterious outcomes in the patient subject. […]
Potency was measured as the ability of the 2 kDa PEGylated MC4-RA or the unmodified MC4-RA to stimulate cAMP production in cells expressing the melanocortin-4 cell receptor (MC4 receptor). […] The experiment was performed in triplicate and cAMP levels were measured with the cAMP Tropix assay kit. The maximum quantity of cAMP was normalized to 100% or “% Max Response” and the concentration of 2 kDa PEGylated or unmodified MC4-RA is shown as the log of the Molar concentration.

[4] = tested on: EpiAirway™ epithelial cell monolayer; experiment: Transepithelial electrical resistance (TEER) of EpiAirway epithelial cell monolayer; type: cell-based; details: positive TEER control
Procedure: The epithelial cells are grown on porous membrane-bottomed cell culture inserts at an air-liquid interface, which results in differentiation of the cells to a highly polarized morphology. The apical surface is ciliated with a microvillous ultrastructure and the epithelium produces mucus (the presence of mucin has been confirmed by immunoblotting). The inserts have a diameter of 0.875 cm, providing a surface area of 0.6 cm^2. The cells are plated onto the inserts at the factory approximately three weeks before shipping. One “kit” consists of 24 units.
These junctions confer a transepithelial resistance of several hundred ohms×cm^2 in excised airway tissues.

| Molecule | cumulative food intake [1] | EC50 [2] [nM] | EC50 [3] [nM] | Average TEER Measurement ([4]; Table 3 formulation #11: 9% Triton X-100 only) | Average TEER Measurement ([4]; Table 5 formulation #17: 9% Triton X-100 only) |
| --- | --- | --- | --- | --- | --- |
| CCCCC(=O)N[C@H]1CCC(=O)NCCCC[C@@H](C(N)=O)NC(=O)[C@H](Cc2c[nH]c3ccccc23)NC(=O)[C@H](CCCNC(=N)N)NC(=O)[C@@H](Cc2ccccc2)NC(=O)C2(CCC(c3ccc(OC)cc3)CC2)NC1=O (some centres unmarked) [unmodified MC4-RA] (Pentanoyl-E[X1][dF]RWK-NH2; lactam 1-6) | significant reduction on cumulative food intake | ~800 | 0.5 | – | – |
| octylphenolpoly(ethyleneglycolether) [Triton X-100 ™] | – | – | – | 1.5 | 1.2 |
